Assay results from US20240376090A1, “ISOXAZOLE DERIVATIVES AS MODULATORS OF THE 5-HT2A SEROTONIN RECEPTOR USEFUL FOR THE TREATMENT OF DISORDERED RELATED THERETO” (Arena Pharmaceuticals, Inc., priority 2020, published 2024).

What follows are compounds tested against 5-HT2A receptor (Homo sapiens (Human), UniProt P28223) (assay: Radioligand binding assay ([3H]5-HT competition), 5-HT2A). Settings: [3H]5-HT radioligand, membranes of HEK293 cells expressing recombinant 5-HT2A; Ki from IC50 by Cheng-Prusoff; read-out: 5-HT2A serotonin binding Ki value.
Protocol: Competition binding experiments consisted of addition of 5 μL of serially diluted test compound, 50 μL of radioligand stock diluted in Assay Buffer (20 mM HEPES, pH 7.4, 10 mM MgCl2), and 145 μL of diluted membrane expressing the receptor of interest to 96-well microtiter plates, which were then incubated for one hour at room temperature. Assay incubations were terminated by rapid filtration through Perkin Elmer GF/C filtration plates under vacuum pressure using a 96-well Packard filtration apparatus, followed by washing the filter plates several times with ice cold Assay Buffer. Plates were then dried at 45° C. for a minimum of four hours. Finally, 25 μL of BetaScint scintillation cocktail was added to each well and the plates were counted in a Packard TopCount scintillation counter. In each competition study, test compounds were assayed at 10 concentrations with three replicates at each test concentration. Dose-response curves were constructed to determine IC50 values and these were converted to corresponding Ki values using the Cheng-Prusoff equation.

5-HT2A receptor, sequence (P28223 whole entry): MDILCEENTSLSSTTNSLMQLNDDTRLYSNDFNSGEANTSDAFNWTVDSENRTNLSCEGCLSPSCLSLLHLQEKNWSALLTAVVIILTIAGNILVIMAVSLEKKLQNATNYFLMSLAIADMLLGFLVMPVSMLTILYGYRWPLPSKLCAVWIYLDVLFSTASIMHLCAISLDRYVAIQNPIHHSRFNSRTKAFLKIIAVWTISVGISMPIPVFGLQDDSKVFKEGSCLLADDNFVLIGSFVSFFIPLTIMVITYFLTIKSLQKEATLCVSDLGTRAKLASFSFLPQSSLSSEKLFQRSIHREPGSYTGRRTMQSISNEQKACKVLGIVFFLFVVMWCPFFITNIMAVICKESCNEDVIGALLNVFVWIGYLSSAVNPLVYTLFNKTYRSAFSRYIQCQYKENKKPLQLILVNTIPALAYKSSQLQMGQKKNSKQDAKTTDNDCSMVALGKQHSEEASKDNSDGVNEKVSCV

Structure (SMILES)	Ki
Cc1noc(C)c1-c1cc(NC(=O)C2CC2C2CC2)ccc1OCCN1CCCC1 (stereo not shown) [Compound 100, N-(3-(3,5-dimethylisoxazol-4-yl)-4-(2-(pyrrolidin-1-yl)ethoxy)phenyl)-[1,1′-bi(cyclopropane)]-2-carboxamide]	0.00289 µM
CCOCCC(=O)Nc1ccc(OCCN2CCCC2)c(-c2c(C)noc2C)c1 [Compound 101, N-(3-(3,5-dimethylisoxazol-4-yl)-4-(2-(pyrrolidin-1-yl)ethoxy)phenyl)-3-ethoxypropanamide]	0.0783 µM
Cc1noc(C)c1-c1cc(NC(=O)c2ccncc2)ccc1OCCN1CCCC1 [Compound 102, N-(3-(3,5-dimethylisoxazol-4-yl)-4-(2-(pyrrolidin-1-yl)ethoxy)phenyl)isonicotinamide]	0.119 µM
Cc1noc(C)c1-c1cc(NC(=O)c2ccncc2F)ccc1OCCN1CCCC1 [Compound 103, N-(3-(3,5-dimethylisoxazol-4-yl)-4-(2-(pyrrolidin-1-yl)ethoxy)phenyl)-3-fluoroisonicotinamide]	0.0508 µM
Cc1noc(C)c1-c1cc(NC(=O)c2cc(F)ccn2)ccc1OCCN1CCCC1 [Compound 104, N-(3-(3,5-dimethylisoxazol-4-yl)-4-(2-(pyrrolidin-1-yl)ethoxy)phenyl)-4-fluoropicolinamide]	0.0196 µM
Cc1noc(C)c1-c1cc(NC(=O)c2cc(Cl)ccn2)ccc1OCCN1CCCC1 [Compound 105, 4-chloro-N-(3-(3,5-dimethylisoxazol-4-yl)-4-(2-(pyrrolidin-1-yl)ethoxy)phenyl)picolinamide]	0.00394 µM
Cc1noc(C)c1-c1cc(NC(=O)[C@@H]2C[C@H]2F)ccc1OCCN1CCCC1 [Compound 106, (1S,2R)—N-[3-(3,5-dimethylisoxazol-4-yl)-4-(2-pyrrolidin-1-ylethoxy)phenyl]-2-fluoro-cyclopropanecarboxamide]	0.00113 µM
Cc1noc(C)c1-c1cc(NC(=O)[C@H]2C[C@H]2F)ccc1OCCN1CCCC1 [Compound 107, (1R,2R)—N-(3-(3,5-dimethylisoxazol-4-yl)-4-(2-(pyrrolidin-1-yl)ethoxy)phenyl)-2-fluorocyclopropane-1-carboxamide]	0.0151 µM
Cc1noc(C)c1-c1cc(NC(=O)[C@@H]2C[C@@H]2F)ccc1OCCN1CCCC1 [Compound 108, (1S,2S)—N-(3-(3,5-dimethylisoxazol-4-yl)-4-(2-(pyrrolidin-1-yl)ethoxy)phenyl)-2-fluorocyclopropane-1-carboxamide]	0.00621 µM
Cc1ncsc1C(=O)Nc1ccc(OCCN2CCCC2)c(-c2c(C)noc2C)c1 [Compound 109, N-(3-(3,5-dimethylisoxazol-4-yl)-4-(2-(pyrrolidin-1-yl)ethoxy)phenyl)-4-methylthiazole-5-carboxamide]	0.00378 µM
Cc1nc(C)c(C(=O)Nc2ccc(OCCN3CCCC3)c(-c3c(C)noc3C)c2)s1 [Compound 110, N-(3-(3,5-dimethylisoxazol-4-yl)-4-(2-(pyrrolidin-1-yl)ethoxy)phenyl)-2,4-dimethylthiazole-5-carboxamide]	0.11 µM
Cc1cnoc1C(=O)Nc1ccc(OCCN2CCCC2)c(-c2c(C)noc2C)c1 [Compound 111, N-(3-(3,5-dimethylisoxazol-4-yl)-4-(2-(pyrrolidin-1-yl)ethoxy)phenyl)-4-methylisoxazole-5-carboxamide]	0.0238 µM
Cc1ncoc1C(=O)Nc1ccc(OCCN2CCCC2)c(-c2c(C)noc2C)c1 [Compound 112, N-(3-(3,5-dimethylisoxazol-4-yl)-4-(2-(pyrrolidin-1-yl)ethoxy)phenyl)-4-methyloxazole-5-carboxamide]	0.0141 µM
CCOC1CC1C(=O)Nc1ccc(OCCN2CCCC2)c(-c2c(C)noc2C)c1 (stereo not shown) [Compound 115, N-(3-(3,5-dimethylisoxazol-4-yl)-4-(2-(pyrrolidin-1-yl)ethoxy)phenyl)-2-ethoxycyclopropane-1-carboxamide]	0.00852 µM
Cc1noc(C)c1-c1cc(NC(=O)c2ccnn2C)ccc1OCCN1CCCC1 [Compound 116, N-[3-(3,5-dimethylisoxazol-4-yl)-4-(2-pyrrolidin-1-ylethoxy)phenyl]-2-methyl-pyrazole-3-carboxamide]	0.00615 µM
Cc1noc(C)c1-c1cc(NC(=O)c2ccnn2C)ccc1OCCN1CCC1 [Compound 118, N-(4-(2-(azetidin-1-yl)ethoxy)-3-(3,5-dimethylisoxazol-4-yl)phenyl)-1-methyl-1H-pyrazole-5-carboxamide]	0.0189 µM
Cc1noc(C)c1-c1cc(NC(=O)c2ccccc2)ccc1OCCN1CCC1 [Compound 120, N-(4-(2-(azetidin-1-yl)ethoxy)-3-(3,5-dimethylisoxazol-4-yl)phenyl)benzamide]	0.00941 µM

Structure (SMILES)	Ki
Cc1noc(C)c1-c1cc(NC(=O)Cc2ccccc2)ccc1OCCN1CCC1 [Compound 123, N-(4-(2-(azetidin-1-yl)ethoxy)-3-(3,5-dimethylisoxazol-4-yl)phenyl)-2-phenylacetamide]	0.0118 µM
COc1cccc(CC(=O)Nc2ccc(OCCN3CCC3)c(-c3c(C)noc3C)c2)c1 [Compound 124, N-(4-(2-(azetidin-1-yl)ethoxy)-3-(3,5-dimethylisoxazol-4-yl)phenyl)-2-(3-methoxyphenyl)acetamide]	0.0106 µM
COc1ccc(CC(=O)Nc2ccc(OCCN3CCC3)c(-c3c(C)noc3C)c2)cc1 [Compound 126, N-(4-(2-(azetidin-1-yl)ethoxy)-3-(3,5-dimethylisoxazol-4-yl)phenyl)-2-(4-methoxyphenyl) acetamide]	0.00528 µM
Cc1ncsc1CC(=O)Nc1ccc(OCCN2CCC2)c(-c2c(C)noc2C)c1 [Compound 127, N-(4-(2-(azetidin-1-yl)ethoxy)-3-(3,5-dimethylisoxazol-4-yl)phenyl)-2-(4-methylthiazol-5-yl)acetamide]	0.00851 µM
Cc1noc(C)c1-c1cc(NC(=O)Cc2cncc(F)c2)ccc1OCCN1CCC1 [Compound 128, N-(4-(2-(azetidin-1-yl)ethoxy)-3-(3,5-dimethylisoxazol-4-yl)phenyl)-2-(5-fluoropyridin-3-yl)acetamide]	0.0146 µM
Cc1noc(C)c1-c1cc(NC(=O)c2c(F)cnn2C)ccc1OCCN1CCC1 [Compound 130, N-(4-(2-(azetidin-1-yl)ethoxy)-3-(3,5-dimethylisoxazol-4-yl)phenyl)-4-fluoro-1-methyl-1H-pyrazole-5-carboxamide]	0.0128 µM
CCOC1CC1C(=O)Nc1ccc(OCCN2CCC2)c(-c2c(C)noc2C)c1 (stereo not shown) [Compound 131, N-(4-(2-(azetidin-1-yl)ethoxy)-3-(3,5-dimethylisoxazol-4-yl)phenyl)-2-ethoxycyclopropane-1-carboxamide]	0.0777 µM
Cc1noc(C)c1-c1cc(NC(=O)C2CC2)ccc1OC1CN(C)C1 [Compound 132, N-[3-(3,5-dimethylisoxazol-4-yl)-4-(1-methylazetidin-3-yl)oxy-phenyl]cyclopropanecarboxamide]	0.0461 µM
CCN1CC(Oc2ccc(NC(=O)C3CC3)cc2-c2c(C)noc2C)C1 [Compound 133, N-(3-(3,5-dimethylisoxazol-4-yl)-4-((1-ethylazetidin-3-yl)oxy)phenyl)cyclopropanecarboxamide]	0.0513 µM
Cc1noc(C)c1-c1cc(NC(=O)c2c(F)cnn2C)ccc1OCCN1CCOCC1 [Compound 134, N-[3-(3,5-dimethylisoxazol-4-yl)-4-(2-morpholinoethoxy)phenyl]-4-fluoro-2-methyl-pyrazole-3-carboxamide]	0.00586 µM
CCOC1CC1C(=O)Nc1ccc(OCCN2CCOCC2)c(-c2c(C)noc2C)c1 (stereo not shown) [Compound 135, N-[3-(3,5-dimethylisoxazol-4-yl)-4-(2-morpholinoethoxy)phenyl]-2-ethoxy-cyclopropanecarboxamide]	0.0201 µM
Cc1noc(C)c1-c1cc(NC(=O)C2CC2)ccc1OCCN1CCOC(=O)CC1 [Compound 137, N-[3-(3,5-dimethylisoxazol-4-yl)-4-[2-(7-oxo-1,4-oxazepan-4-yl)ethoxy]phenyl]cyclopropanecarboxamide]	0.551 µM
Cc1noc(C)c1-c1cc(NC(=O)C2CC2)ccc1OCCN1CCN2C(=O)CCC2C1 (stereo not shown) [Compound 138, N-(3-(3,5-dimethylisoxazol-4-yl)-4-(2-(6-oxohexahydropyrrolo[1,2-a]pyrazin-2(1H)-yl)ethoxy)phenyl)cyclopropanecarboxamide]	0.0246 µM
Cc1noc(C)c1-c1cc(NC(=O)C2CC2)ccc1OCCN1CCC2(CC1)CNC2=O [Compound 139, N-(3-(3,5-dimethylisoxazol-4-yl)-4-(2-(1-oxo-2,7-diazaspiro[3.5]nonan-7-yl)ethoxy)phenyl)cyclopropanecarboxamide]	0.124 µM
Cc1noc(C)c1-c1cc(NC(=O)C2CC2)ccc1OCCN1CCC2(CC1)CC(=O)N2 [Compound 140, N-(3-(3,5-dimethylisoxazol-4-yl)-4-(2-(2-oxo-1,7-diazaspiro[3.5]nonan-7-yl)ethoxy)phenyl)cyclopropanecarboxamide]	0.228 µM
Cc1noc(C)c1-c1cc(NC(=O)C2CC2)ccc1OCCN1CCC2(CCOC2=O)CC1 [Compound 142, N-(3-(3,5-dimethylisoxazol-4-yl)-4-(2-(1-oxo-2-oxa-8-azaspiro[4.5]decan-8-yl)ethoxy)phenyl)cyclopropanecarboxamide]	0.0674 µM
COC1CCN(CCOc2ccc(NC(=O)C3CC3)cc2-c2c(C)noc2C)CC1 [Compound 143, N-(3-(3,5-dimethylisoxazol-4-yl)-4-(2-(4-methoxypiperidin-1-yl)ethoxy)phenyl)cyclopropanecarboxamide]	0.084 µM
